Measured values reported in patent US10526339B2, “Substituted glucosepanes and compositions thereof” (YALE UNIVERSITY, priority 2015, dated 2020).

Legend:
[1] = EXSY NOESY conformational exchange (E/Z isomerization); assay type: physicochemical
Description: With synthetic glucosepane (5) in hand, we next investigated its structural features using multidimensional NMR techniques. […] Indeed, although the original glucosepane isolation report did note the possibility of E/Z isomerism in acyclic 2-amino imidazoles, the presence of these exchange peaks in the case of glucosepane have previously been incorrectly attributed to stereoisomerism at the C-8a stereocenter.^(35) Using an EXSY (EXchange SpectroscopY) NOESY sequence,^(34) the inventors were able to calculate an approximate rate for this conformational exchange process on the order of 3 s^−1 in D2O.^28
The integral ratios and tm were used to calculate an approximate rate by the following formula:^5
[formula] Xa=mole fraction of conformer A Xb=mole fraction of conformer B Iaa=integral intensity for diagonal peak (conformer A) Ibb=integral intensity for diagonal peak (conformer B) Iab and Iba=integral intensity for cross-peak Sample calculation with the data provided above: […]

[2] = Glucosepane pKa study (UV pH titration)
Description: The inventors next took advantage of glucospane's intrinsic spectral properties to measure the pKa of the iso-imidazole core.

[3] = Hydrogen/deuterium exchange at C-8a in D2O; assay type: physicochemical; details: basic conditions (aqueous NaOD), either epimer

Row | SMILES | k ([1]; sample calculation from 2D NOESY integrals, tm 1.00 sec) | approximate rate of conformational exchange (E/Z isomerization about exocyclic C2-N bond) ([1]; in D2O, EXSY NOESY) | pKa [2] | time for quantitative hydrogen/deuterium exchange at the C-8a H-atom [3]
1 | N[C@@H](CCCCN1C[C@@H](O)[C@@H](O)C[C@@H]2N=C(NCCC[C@H](N)C(=O)O)N=C21)C(=O)O [Compound 5, Glucosepane Tris-Trifluoroacetate] | 2.89 s⁻¹ | – | – | –
2 | N[C@@H](CCCCN1C[C@@H](O)[C@@H](O)C[C@@H]2N=C(NCCC[C@H](N)C(=O)O)N=C21)C(=O)O (stereo in doubt) [Compound 5, Glucosepane Tris-Trifluoroacetate] | – | ~3 s⁻¹ | ~12 | < 60 min
